Data set [1] has as its system mice with acute hepatic failure. Briefly: Effect on survival ratio of mice with acute hepatic failure (heat-killed P. acnes + LPS). Conditions: survival twenty-four hours after injection of LPS, control 7.5. The data set is classed as in vivo, male balb/c strain mice. How it is done: Seven groups of male balb/c strain mice (six weeks of age) were used. Each group included 40 mice. Acute hepatic failure was induced by the injection of 1 µg/mouse of LPS (lipopolysaccharide, Difco Laboratories) to mice that had been injected with 1 mg/mouse of heat-killed P. acnes (Propionibacterium acnes, First Department of Biochemistry in Osaka City Univ. Medical School) seven days before. The above obtained compounds (deoxyschizandrin, gomisin N, schizandrin, gomisin A, q-schizandrin and wuweizisu C) which had been suspended in 0.5% CMC (carboxymethyl cellulose, Wako Junyaku Kogyo, Co. Ltd.), was given p.o. to each group eight hours after the injection of LPS. Only vehicle (CMC) was given p.o. to one remaining group as a control group.
Survival ratio of mice was periodically examined twenty-four hours after induction of acute hepatic failure. Each dose of the above compounds and corresponding survival ratio twenty-four hours after the injection of LPS are shown in Table 1.

A short description of data set [2]: Acute toxicity LD50, p.o. The conditions noted are these: mouse, in vivo, po; p.o. in ddY mice. The source says: And estimated clinical daily doses of the present therapeutic drugs for patients with hepatic failure are also given in Table 2.
The subject of data set [3] is rats with acute hepatic failure. Briefly: Survival ratio and serum GOT in acute hepatic failure induced by P. acnes + LPS. The data set is classed as in vivo, male Wistar rats. The conditions noted are these: for survival ratio: LPS on day seven, control 8.8%. How it is done: Three groups of male Wistar rats were used. Each group included 45 rats. Each rat in all groups was injected with 10 mg/rat of P. acnes. Four days after, gomisin A (100mg/kg, […]) obtained in Production Example 3 were suspended in 2% Tween 80/saline and administered i.p. to respectively two of three groups. Only vehicle (2% Tween 80/saline) was administered i.p. to one remaining group as a control group. All rats were injected with 50µg/rat of LPS, seven days after the injection of P. acnes. Twenty-four hours after the injection of LPS, blood samples were collected from surviving rats by heart puncture, and serum GOT activities were measured. GOT is one of amino acid transferases contained in liver cells. High serum GOT activities reflect large number of destroyed liver cells.

The mark [4] stands for this setting: dose 50 mg/kg p.o. in 0.5% CMC eight hours after LPS.
[5] abbreviates: dose 20 mg/kg p.o. in 0.5% CMC eight hours after LPS.

By LD50 is commonly meant the dose expected to kill half of the subjects tested. High values mean a less toxic substance, low ones a more toxic substance. For `COc1cc2c(c(OC)c1OC)-c1c(cc(OC)c(OC)c1OC)C[C@H](C)[C@H](C)C2` [Deoxyschizandrin, deoxyschizandrin], the “Survival Ratio (%)” value in data set [1] (setting [4]) was found to be 55%. This compound displayed an LD50 in data set [2] of 2000 mg/kg.

Turning to `COc1cc2c(c(OC)c1OC)-c1c(cc3c(c1OC)OCO3)CC(C)C(C)(O)C2` (centres unmarked) [Gomisin A, gomisin A], the “Survival Ratio (%)” value in data set [1] (dose 10 mg/kg p.o. in 0.5% CMC eight hours after LPS) is 80%. The survival ratio in data set [3] (50mg/kg i.p. in 2% Tween 80/saline four days after P. acnes) amounted to 83.3%; in data set [3] (100mg/kg i.p. in 2% Tween 80/saline four days after P. acnes), 100%. In data set [3] (100mg/kg i.p., surviving rats, twenty-four hours after injection of LPS, control 7000 IU), the “average serum GOT activities” value was 140 IU. The compound further came in with a median lethal dose (LD50) in data set [2] of 777 mg/kg.

With `COc1cc2c(c(OC)c1OC)-c1c(cc3c(c1OC)OCO3)CC(C)C(C)C2` (centres unmarked) [Gomisin N, gomisin N], in data set [1] (setting [5]), the “Survival Ratio (%)” value amounted to 80%. The compound further gave an LD50 in data set [2] of 2000 mg/kg.

Consider `COc1cc2c(c(OC)c1OC)-c1c(cc(OC)c(OC)c1OC)C[C@](C)(O)[C@@H](C)C2` [Schizandrin, schizandrin], for which the “Survival Ratio (%)” value in data set [1] (setting [4]) amounted to 50%. The compound further registered an LD50 in data set [2] of 1450 mg/kg.

`COc1c2c(cc3c1-c1c(cc4c(c1OC)OCO4)CC(C)C(C)C3)OCO2` (centres unmarked) [Wuweizisu C]: the “Survival Ratio (%)” value in data set [1] (setting [5]) is given as 70%. The compound also displayed an LD50 in data set [2] of 2000 mg/kg.

In the case of `COc1cc2c(c(OC)c1OC)-c1c(cc3c(c1OC)OCO3)CC(C)C(C)C2` (centres unmarked) [γ-Schizandrin, γ-schizandrin], in data set [1] (setting [4]), the “Survival Ratio (%)” value is given as 60%.

The record behind these values is patent publication EP0224596A1, “Use of dibenzocyclooctadiene lignans extracted from Schisandrae Fructus for the manufacture of a medicament for the treatment of hepatic failure” (priority 1985, dated 1986).
